Reference: PubChem BioAssay AID330 (DTP/NCI, 2004)
Values joined by “and” are separate entries in the source; they are usually repeats but may differ in a detail not shown here. Equal values may be shown once. Toxic doses and inconclusive results are not listed. The calls were made as follows: active = survival T/C of 150% or more; inactive = T/C below 125% in these data. Peptide text beside a SMILES is read from it. * marks the point of attachment. Trt = c1ccc(C(c2ccccc2)(c2ccccc2)*)cc1; Cbz = O=C(OCc1ccccc1)*; Bz = O=C(c1ccccc1)*

Tested on: P388 leukemia ip, CD2F1 mice, survival T/C
Assay: NCI In Vivo Anticancer Drug Screen. Data for tumor model P388 Leukemia (intraperitoneal) in CD2F1 (CDF1) mice
Conditions: endpoint: median survival time, higher = longer survival
In short: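 Mice carrying the transplanted tumor received test compound or vehicle. Survival was recorded in each group, and the value is the treated-group measurement divided by that of the vehicle-treated control group.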

[1] = dose: 100.0 mg/kg/injection, schedule: Q04DX003 (ip), vehicle: Klucel (hydroxypropylcellulose) (HPC)
[2] = dose: 200.0 mg/kg/injection, schedule: Q04DX003 (ip), vehicle: Klucel (hydroxypropylcellulose) (HPC)
[3] = dose: 400.0 mg/kg/injection, schedule: Q04DX003 (ip), vehicle: Klucel (hydroxypropylcellulose) (HPC)
[4] = dose: 50.0 mg/kg/injection, schedule: Q01DX009 (ip), vehicle: Klucel (hydroxypropylcellulose) (HPC)
[5] = dose: 100.0 mg/kg/injection, schedule: Q01DX009 (ip), vehicle: Klucel (hydroxypropylcellulose) (HPC)
[6] = dose: 200.0 mg/kg/injection, schedule: Q01DX009 (ip), vehicle: Klucel (hydroxypropylcellulose) (HPC)
[7] = dose: 50.0 mg/kg/injection, schedule: Q01DX009 (ip), vehicle: saline with Tween-80
[8] = dose: 100.0 mg/kg/injection, schedule: Q01DX009 (ip), vehicle: saline with Tween-80
[9] = dose: 25.0 mg/kg/injection, schedule: Q01DX005 (ip), vehicle: saline with Tween-80
[10] = dose: 50.0 mg/kg/injection, schedule: Q01DX005 (ip), vehicle: saline with Tween-80
[11] = dose: 100.0 mg/kg/injection, schedule: Q01DX005 (ip), vehicle: saline with Tween-80
[12] = dose: 200.0 mg/kg/injection, schedule: Q01DX005 (ip), vehicle: saline with Tween-80
[13] = dose: 100.0 mg/kg/injection, schedule: Q04DX002 (ip), vehicle: Klucel (hydroxypropylcellulose) (HPC)
[14] = dose: 200.0 mg/kg/injection, schedule: Q04DX002 (ip), vehicle: Klucel (hydroxypropylcellulose) (HPC)
[15] = dose: 400.0 mg/kg/injection, schedule: Q04DX002 (ip), vehicle: Klucel (hydroxypropylcellulose) (HPC)
[16] = dose: 50.0 mg/kg/injection, schedule: Q04DX003 (ip), vehicle: saline with Tween-80
[17] = dose: 100.0 mg/kg/injection, schedule: Q04DX003 (ip), vehicle: saline with Tween-80
[18] = dose: 200.0 mg/kg/injection, schedule: Q04DX003 (ip), vehicle: saline with Tween-80
[19] = dose: 400.0 mg/kg/injection, schedule: Q04DX003 (ip), vehicle: saline with Tween-80
[20] = dose: 25.0 mg/kg/injection, schedule: Q04DX003 (ip), vehicle: saline with Tween-80

Measured: T/C

Nc1nnc(-c2ccc(Cl)c(Cl)c2)o1
inactive: [1] 100 % of control | [2] 105 % of control | [3] 115 % of control

O=S1(=O)CCN(C2CCS(=O)(=O)C2)CC1 (stereo not drawn)
inactive: [4] 90 % of control | [5] 99 % of control | [6] 90 % of control

CCOC(=O)c1ccc(N=Nc2c(O)c(C(=O)OCC)c(O)c3ccccc23)cc1O
inactive: dose: 100.0 mg/kg/injection, schedule: Q01DX001 (ip), vehicle: distilled water + alcohol 91 % of control | dose: 200.0 mg/kg/injection, schedule: Q01DX001 (ip), vehicle: distilled water + alcohol 86 % of control | dose: 400.0 mg/kg/injection, schedule: Q01DX001 (ip), vehicle: distilled water + alcohol 86 % of control

COC(=O)C(CSC(=O)c1ccccc1)NC(=O)CNC(=O)CNC(=O)C(CCCCNC(=O)OCc1ccccc1)NC(=O)CNC(=O)C(CSC(c1ccccc1)(c1ccccc1)c1ccccc1)NC(=O)OCc1ccccc1 (stereo not drawn) (Cbz-C(Trt)GK(Cbz)GGC(Bz)-OMe; configuration not given here)
inactive: dose: 60.0 mg/kg/injection, schedule: Q01DX005 (ip), vehicle: Klucel (hydroxypropylcellulose) (HPC) 97 % of control | dose: 120.0 mg/kg/injection, schedule: Q01DX005 (ip), vehicle: Klucel (hydroxypropylcellulose) (HPC) 97 % of control | dose: 240.0 mg/kg/injection, schedule: Q01DX005 (ip), vehicle: Klucel (hydroxypropylcellulose) (HPC) 88 % of control

O=C(CC(=O)C(F)(F)F)c1cc2ccccc2s1
inactive: dose: 25.0 mg/kg/injection, schedule: Q01DX009 (ip), vehicle: saline with Tween-80 113 % of control | [7] 96 % of control | [8] 115 % of control

CCN(CC)Cc1c(OC)ccc2[nH]c3c4ccc(Cl)cc4ncc3c12
inactive: [9] 109 % of control | [10] 101 % of control | [11] 106 % of control | [12] 112 % of control

O=C(O)COc1cccc2c(=O)cc(-c3ccccc3)oc12
inactive: dose: 50.0 mg/kg/injection, schedule: Q01DX005 (ip), vehicle: saline 102 % of control | dose: 100.0 mg/kg/injection, schedule: Q01DX005 (ip), vehicle: saline 101 % of control | dose: 200.0 mg/kg/injection, schedule: Q01DX005 (ip), vehicle: saline 99 % of control

CN(C)C1CCc2ccccc2C1OC(=O)c1ccccc1 (stereo not drawn)
inactive: [7] 101 % of control | [8] 107 % of control

BOc1ccc(C)cc1CN(C)Cc1ccccc1
inactive: [13] 103 % of control | [14] 99 % of control | [15] 104 % of control

Cc1ccc(NC(=O)Oc2ccc(Br)cc2Br)c([N+](=O)[O-])c1
inactive: [7] 115 % of control | [16] 115 % of control | [8] 115 % of control | [17] 96 % of control | [18] 99 % of control | [19] 115 % of control

Oc1ccc2c(c1)[C@]13CCCCC1[C@H](C2)N(Cc1ccoc1)CC3 (stereo partly drawn)
inactive: dose: 25.0 mg/kg/injection, schedule: Q01DX009 (ip), vehicle: saline 97 % of control | dose: 50.0 mg/kg/injection, schedule: Q01DX009 (ip), vehicle: saline 99 % of control and 103 % of control | dose: 100.0 mg/kg/injection, schedule: Q01DX009 (ip), vehicle: saline 99 % of control

O=C1N2CCSC2=NC1(c1ccccc1)c1ccccc1
inactive: dose: 25.0 mg/kg/injection, schedule: Q04DX003 (ip), vehicle: Klucel (hydroxypropylcellulose) (HPC) 100 % of control | dose: 50.0 mg/kg/injection, schedule: Q04DX003 (ip), vehicle: Klucel (hydroxypropylcellulose) (HPC) 100 % of control | [1] 93 % of control | [2] 102 % of control | [3] 100 % of control

O=C1C=CC(=Nc2ccc3c(c2)C(Br)c2ccccc2-3)O1 (stereo not drawn)
inactive: dose: 4.0 mg/kg/injection, schedule: Q01DX009 (ip), vehicle: saline with Tween-80 113 % of control | dose: 6.0 mg/kg/injection, schedule: Q01DX009 (ip), vehicle: saline with Tween-80 104 % of control | dose: 6.25 mg/kg/injection, schedule: Q04DX003 (ip), vehicle: saline with Tween-80 113 % of control | dose: 9.0 mg/kg/injection, schedule: Q01DX009 (ip), vehicle: saline with Tween-80 90 % of control | dose: 12.5 mg/kg/injection, schedule: Q01DX009 (ip), vehicle: saline with Tween-80 113 % of control | dose: 12.5 mg/kg/injection, schedule: Q04DX003 (ip), vehicle: saline with Tween-80 100 % of control | [20] 113 % of control

CC(=O)C1=C(C)NC(C)=C(C(C)=O)C1c1cccc([N+](=O)[O-])c1
inactive: [20] 100 % of control | [16] 100 % of control | [17] 100 % of control and 91 % of control

CC(C)=CCCC1(C)C=Cc2c(ccc3c(C)noc23)O1 (stereo not drawn)
inactive: [10] 100 % of control | [11] 89 % of control | [12] 110 % of control

Cc1ncoc1C(=O)Nc1ccc([N+](=O)[O-])cc1[N+](=O)[O-]
inactive: [13] 103 % of control | [14] 100 % of control | [15] 105 % of control

O=C(N=Nc1c(Cl)c(O)c2ccccc2c1O)C(=O)Nc1cccc(C(F)(F)F)c1
inactive: dose: 6.25 mg/kg/injection, schedule: Q01DX005 (ip), vehicle: Klucel (hydroxypropylcellulose) (HPC) 107 % of control | dose: 12.5 mg/kg/injection, schedule: Q01DX005 (ip), vehicle: Klucel (hydroxypropylcellulose) (HPC) 107 % of control | dose: 25.0 mg/kg/injection, schedule: Q01DX005 (ip), vehicle: Klucel (hydroxypropylcellulose) (HPC) 107 % of control | dose: 50.0 mg/kg/injection, schedule: Q01DX005 (ip), vehicle: Klucel (hydroxypropylcellulose) (HPC) 98 % of control

O=C(NC(=S)c1ccccc1)Nc1ccc(Cl)c(Cl)c1
inactive: dose: 8.0 mg/kg/injection, schedule: Q01DX009 (ip), vehicle: saline with Tween-80 100 % of control | dose: 16.0 mg/kg/injection, schedule: Q01DX009 (ip), vehicle: saline with Tween-80 99 % of control | dose: 32.0 mg/kg/injection, schedule: Q01DX009 (ip), vehicle: saline with Tween-80 87 % of control

COc1ccc(C2C(C#N)C(=O)NC(=O)C2C#N)cc1OC (stereo not drawn)
inactive: [4] 98 % of control | [5] 107 % of control | [6] 111 % of control

O=c1c2ccccc2sc2cccc(NCCCN3CCN(CCCNc4cccc5sc6ccccc6c(=O)c45)CC3)c12
inactive: dose: 0.5 mg/kg/injection, schedule: Q01DX005 (ip), vehicle: saline with Tween-80 100 % of control | dose: 1.0 mg/kg/injection, schedule: Q01DX005 (ip), vehicle: saline with Tween-80 99 % of control | dose: 2.0 mg/kg/injection, schedule: Q01DX005 (ip), vehicle: saline with Tween-80 99 % of control | dose: 4.0 mg/kg/injection, schedule: Q01DX005 (ip), vehicle: saline with Tween-80 95 % of control | dose: 8.0 mg/kg/injection, schedule: Q01DX005 (ip), vehicle: saline with Tween-80 88 % of control

COc1cc(OC)c(/C=C\c2ccnc3ccccc23)c(OC)c1
inactive: [7] 97 % of control | [8] 90 % of control | dose: 200.0 mg/kg/injection, schedule: Q01DX009 (ip), vehicle: saline with Tween-80 104 % of control

O=C(O)C(O)(c1ccccc1Cl)c1ccccc1Cl
inactive: [17] 105 % of control | [18] 110 % of control | [19] 109 % of control

NC(=O)Nc1ccc(Cl)cc1[N+](=O)[O-]
inactive: dose: 37.5 mg/kg/injection, schedule: Q01DX009 (ip), vehicle: Klucel (hydroxypropylcellulose) (HPC) 99 % of control | dose: 75.0 mg/kg/injection, schedule: Q01DX009 (ip), vehicle: Klucel (hydroxypropylcellulose) (HPC) 98 % of control

O=C1NC(=O)C2C3CCC(C12)C1C2C(=O)NC(=O)C2C31 (stereo not drawn)
inactive: dose: 12.5 mg/kg/injection, schedule: Q01DX005 (ip), vehicle: saline with Tween-80 91 % of control | [9] 93 % of control | [10] 101 % of control and 91 % of control
